Experimental data from patent US9512152B2, “Phospholipid compound containing unsaturated fatty acid derivative having cyclopropane ring” (NISHIZAKI BIOINFORMATION RESEARCH INSTITUTE, priority 2013, dated 2016).

How the values were obtained:
[1] = tested on: 3T3L1-GLUT4myc adipocytes; assay: Analysis of GLUT4 trafficking (cellular membrane transport of GLUT4); type: cell-based; conditions: 1 μM, 20 min, FIG. 7
Method: 3T3L1-GLUT4myc fibroblast strain expressing GLUT4myc was used. The cells are constructed by inserting human c-MYC epitope (14 amino acids) into the first ectodomain. The cells were cultured in Dulbecco's Modified Eagles Medium (DMEM) added with 10% (v/v) bovine serum, penicillin (final concentration, 100 U/ml) and streptomycin (final concentration, 0.1 mg/ml) in a humid environment under 5% CO2 and 95% air at 37° C. When the cells reached confluence (day 0), the medium was exchanged with DMEM added with 10% (v/v) fetal bovine serum (FBS), 1 μM dexamethasone, 0.5 mM 3-isobutyl-methyl-xanthine and 0.1 mg/ml insulin to allow for differentiation from fibroblast into adipocyte. The medium was exchanged with DMEM added with 10% (v/v) FBS on day 3, day 7 and day 11. On day 14, the cells were used for the experiment.
3T3L1-GLUT4myc adipocytes were incubated in Krebs-Ringer-HEPES buffer [136 mM NaCl, 4.7 mM KCl, 1.25 mM CaCl2, 1.25 mM MgSO4 and 20 mM HEPES, pH 7.5] containing 0.2% (w/v) bovine serum albumin and added with 10 mM glucose at 37° C. for 1 hr. The cells were incubated in the presence or absence of insulin, phospholipid or a derivative thereof for 20 min. Then, the cells were homogenized by sonication in an ice-cooled mitochondria buffer containing 1% (v/v) protease inhibitor cocktail [210 mM mannitol, 70 mM sucrose, and 1 mM ethylenediaminetetraacetic acid (EDTA), 10 mM HEPES, pH 7.5]. Sequentially, the homogenate was centrifuged at 4° C. for 5 min at 3,000 rpm. The supernatant was further centrifuged at 4° C. for 15 min at 11,000 rpm. […] The protein concentration of each fraction was measured using BCA protein assay kit (Thermo Fisher Scientific, Waltham, Mass., USA). […] The immunoreactivity was detected using ECL kit (Invitrogen), and visualized using a chemical luminescence detection system (chemiluminescence detection system; GE Healthcare, Piscataway, N.J., USA). The signal density was measured using an image analysis software (Image Gauge software; GE Healthcare).

[2] = patent document 2; cited from earlier work
[3] = tested on: synapse transmission; conditions: patent document 1; cited from earlier work
[4] = induced by scopolamine; non-patent documents 1, 2; cited from earlier work

insulin: insulin, comparison treatment in the GLUT4 trafficking analysis [reference compound]
Promotion of cellular membrane transport of GLUT4 [1]: an action to promote cellular membrane transport of GLUT4

CCCCC/C=C/C/C=C/CCCCCCCC(=O)OCC(COP(=O)(O)OCCN)OC(=O)CCCCCCC/C=C/C/C=C/CCCCC (centres unmarked) [dilinoleoyl•phosphatidylethanolamine]
Cell death induction suppressive activity / endoplasmic reticulum stress suppressive activity [2]: cell death induction suppressive activity, particularly, endoplasmic reticulum stress suppressive activity

CCCCCC1CC1CC1CC1CCCCCCCC(=O)O (centres unmarked) [DCP-LA, 8-[2-(2-Pentyl-cyclopropylmethyl)-cyclopropyl]-octanoic acid]
Enhancement of synapse transmission (LTP-like) [3]: can maintain stable LTP (long-teLm potentiation)-like enhancement of synapse transmission

CCCCC/C=C\C/C=C\CCCCCCCC(=O)OC[C@H](COP(=O)([O-])OCC[N+](C)(C)C)OC(=O)CCCCCCC/C=C\C/C=C\CCCCC [1,2-dilinoleoyl-sn-glycero-3-phosphocholine]
Improvement of spatial learning disorder and memory disorder [4]: improve spatial learning disorder and memory disorder induced by scopolamine

CCCCCCCC/C=C\CCCCCCCC(=O)O[C@H](COC(=O)CCCCCCCCCCCCCCC)COP(=O)([O-])OCC[N+](C)(C)C [1-palmitoyl-2-oleoyl-sn-glycero-3-phosphocholine]
Improvement of spatial learning disorder and memory disorder [4]: improve spatial learning disorder and memory disorder induced by scopolamine
